# Test results as given in PubChem BioAssay (NCI).
#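 Where inhibition never reached the appropriate level, the endpoint shown equals the highest concentration tested. Otherwise, values were interpolated linearly from a five-concentration, 48-hour dose response in 96-well plates. Definition used: TGI = concentration required for complete inhibition of growth.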
# Test system: SK-MEL-28 melanoma
# Assay: NCI tumour cell line growth inhibition, 48 h
row,SMILES,TGI [µM]
1,COC(=O)C1C(=O)O[C@@H](c2ccc3c(c2)OCO3)C1C(=O)OC (mixture of isomers),> 100
2,OCc1cc2c(cn1)[nH]c1ccc(NCc3ccccc3)cc12,38.4
3,O=[N+]([O-])c1ccccc1C1SCc2nc3ccccc3n21 (stereo not drawn),> 100

# Test system: SK-MEL-5 melanoma
# Assay: NCI tumour cell line growth inhibition, 48 h
row,SMILES,TGI [µM]
1,O=c1cc(O)cc2n1CCC2,> 100
2,COC(=O)C1C(=O)O[C@@H](c2ccc3c(c2)OCO3)C1C(=O)OC (mixture of isomers),> 100
3,OCc1cc2c(cn1)[nH]c1ccc(NCc3ccccc3)cc12,25.6
4,O=[N+]([O-])c1ccccc1C1SCc2nc3ccccc3n21 (stereo not drawn),48.3

# Test system: SK-OV-3 ovarian
# Assay: NCI tumour cell line growth inhibition, 48 h
row,SMILES,TGI [µM]
1,O=c1cc(O)cc2n1CCC2,> 100
2,COC(=O)C1C(=O)O[C@@H](c2ccc3c(c2)OCO3)C1C(=O)OC (mixture of isomers),> 100
3,OCc1cc2c(cn1)[nH]c1ccc(NCc3ccccc3)cc12,86.2
4,O=[N+]([O-])c1ccccc1C1SCc2nc3ccccc3n21 (stereo not drawn),> 100

# Test system: SN12C renal
# Assay: NCI tumour cell line growth inhibition, 48 h
row,SMILES,TGI [µM]
1,O=c1cc(O)cc2n1CCC2,> 100
2,COC(=O)C1C(=O)O[C@@H](c2ccc3c(c2)OCO3)C1C(=O)OC (mixture of isomers),> 100
3,OCc1cc2c(cn1)[nH]c1ccc(NCc3ccccc3)cc12,> 100
4,O=[N+]([O-])c1ccccc1C1SCc2nc3ccccc3n21 (stereo not drawn),> 100

# Test system: SNB-19 CNS
# Assay: NCI tumour cell line growth inhibition, 48 h
row,SMILES,TGI [µM]
1,O=c1cc(O)cc2n1CCC2,> 100
2,COC(=O)C1C(=O)O[C@@H](c2ccc3c(c2)OCO3)C1C(=O)OC (mixture of isomers),> 100
3,OCc1cc2c(cn1)[nH]c1ccc(NCc3ccccc3)cc12,> 100
4,O=[N+]([O-])c1ccccc1C1SCc2nc3ccccc3n21 (stereo not drawn),> 100

# Test system: SNB-75 CNS
# Assay: NCI tumour cell line growth inhibition, 48 h
row,SMILES,TGI [µM]
1,O=c1cc(O)cc2n1CCC2,> 100
2,COC(=O)C1C(=O)O[C@@H](c2ccc3c(c2)OCO3)C1C(=O)OC (mixture of isomers),> 100
3,OCc1cc2c(cn1)[nH]c1ccc(NCc3ccccc3)cc12,69.7

# Test system: SNB-78 CNS
# Assay: NCI tumour cell line growth inhibition, 48 h
row,SMILES,TGI [µM]
1,O=c1cc(O)cc2n1CCC2,> 100
2,COC(=O)C1C(=O)O[C@@H](c2ccc3c(c2)OCO3)C1C(=O)OC (mixture of isomers),> 100

# Test system: SR leukemia
# Assay: NCI tumour cell line growth inhibition, 48 h
row,SMILES,TGI [µM]
1,COC(=O)C1C(=O)O[C@@H](c2ccc3c(c2)OCO3)C1C(=O)OC (mixture of isomers),> 100
2,O=[N+]([O-])c1ccccc1C1SCc2nc3ccccc3n21 (stereo not drawn),> 100

# Test system: SW-620 colon
# Assay: NCI tumour cell line growth inhibition, 48 h
row,SMILES,TGI [µM]
1,O=c1cc(O)cc2n1CCC2,> 100
2,COC(=O)C1C(=O)O[C@@H](c2ccc3c(c2)OCO3)C1C(=O)OC (mixture of isomers),> 100
3,OCc1cc2c(cn1)[nH]c1ccc(NCc3ccccc3)cc12,78.7
4,O=[N+]([O-])c1ccccc1C1SCc2nc3ccccc3n21 (stereo not drawn),> 100

# Test system: TK-10 renal
# Assay: NCI tumour cell line growth inhibition, 48 h
row,SMILES,TGI [µM]
1,O=c1cc(O)cc2n1CCC2,> 100
2,COC(=O)C1C(=O)O[C@@H](c2ccc3c(c2)OCO3)C1C(=O)OC (mixture of isomers),> 100
3,OCc1cc2c(cn1)[nH]c1ccc(NCc3ccccc3)cc12,85.8
4,O=[N+]([O-])c1ccccc1C1SCc2nc3ccccc3n21 (stereo not drawn),> 100

# Test system: U251 CNS
# Assay: NCI tumour cell line growth inhibition, 48 h
row,SMILES,TGI [µM]
1,O=c1cc(O)cc2n1CCC2,> 100
2,COC(=O)C1C(=O)O[C@@H](c2ccc3c(c2)OCO3)C1C(=O)OC (mixture of isomers),> 100
3,OCc1cc2c(cn1)[nH]c1ccc(NCc3ccccc3)cc12,> 100
4,O=[N+]([O-])c1ccccc1C1SCc2nc3ccccc3n21 (stereo not drawn),> 100

# Test system: UACC-257 melanoma
# Assay: NCI tumour cell line growth inhibition, 48 h
row,SMILES,TGI [µM]
1,O=c1cc(O)cc2n1CCC2,> 100
2,COC(=O)C1C(=O)O[C@@H](c2ccc3c(c2)OCO3)C1C(=O)OC (mixture of isomers),> 100
3,OCc1cc2c(cn1)[nH]c1ccc(NCc3ccccc3)cc12,59.9
4,O=[N+]([O-])c1ccccc1C1SCc2nc3ccccc3n21 (stereo not drawn),> 100

# Test system: UACC-62 melanoma
# Assay: NCI tumour cell line growth inhibition, 48 h
row,SMILES,TGI [µM]
1,O=c1cc(O)cc2n1CCC2,> 100
2,COC(=O)C1C(=O)O[C@@H](c2ccc3c(c2)OCO3)C1C(=O)OC (mixture of isomers),> 100
3,OCc1cc2c(cn1)[nH]c1ccc(NCc3ccccc3)cc12,42.7
4,O=[N+]([O-])c1ccccc1C1SCc2nc3ccccc3n21 (stereo not drawn),> 100

# Test system: UO-31 renal
# Assay: NCI tumour cell line growth inhibition, 48 h
row,SMILES,TGI [µM]
1,O=c1cc(O)cc2n1CCC2,> 100
2,COC(=O)C1C(=O)O[C@@H](c2ccc3c(c2)OCO3)C1C(=O)OC (mixture of isomers),> 100
3,OCc1cc2c(cn1)[nH]c1ccc(NCc3ccccc3)cc12,82.7
4,O=[N+]([O-])c1ccccc1C1SCc2nc3ccccc3n21 (stereo not drawn),> 100

# Test system: XF 498 CNS
# Assay: NCI tumour cell line growth inhibition, 48 h
row,SMILES,TGI [µM]
1,O=c1cc(O)cc2n1CCC2,> 100
2,OCc1cc2c(cn1)[nH]c1ccc(NCc3ccccc3)cc12,59.2
3,O=[N+]([O-])c1ccccc1C1SCc2nc3ccccc3n21 (stereo not drawn),> 100
